# In PMC11506774 (Biomolecules, 2024):
# Ends that are not written are not given here.
# How the values were obtained:
# EV-A71/FY0805 [1] = conditions: for IC50 (µg/mL) EV-A71 /FY0805: 24 h
# EV-A71/FY0805 [2] = assay: Receptor competition inhibition assay with cell-free heparan sulfate (HS); format: cell-based; conditions: peptide 62.5 µg/mL pre-incubated with HS (0–0.5 mg/mL) for 1 h, then mixed with 100 TCID50/50 µL EV-A71/FY0805, RD cells 24 h, crystal violet
# Procedure: To confirm the interaction of P25 with receptor heparan sulfate (HS) on the cell surface, 50 µL P25 or its derivatives at a concentration of 62.5 µg/mL were pre-incubated with 50 µL cell-free HS (MCE, HY-101916, Princeton, NJ, USA) at different concentrations of 0–0.5 mg/mL at 37 °C for 1 h, mixed with 100 TCID50/50 µL of EV-A71/FY0805, and infected the pre-seeding RD monolayer cells on 96-well plates for 24 h. The CPE was detected and stained using crystal violet. The optical density (OD) at 550 nm was read using the TECAN Infinite 200 PRO instrument.
# RD cells = assay: Cytotoxicity assay (CCK-8); format: cell-based; conditions: 24 h, 2-fold dilutions from 1 mg/mL, CCK-8, absorbance 450 nm, mean ± SD, at least two independent experiments
# Procedure: RD cells at a density of 4 × 10^4/100 µL/well were seeded in 96-well plates 24 h prior to the cytotoxicity assay. The peptide P25 and its derivatives were reconstituted in DMSO to a concentration of 25 mg/mL and then diluted to 1 mg/mL in DMEM with 100 mM HEPES, from which 2-fold serial dilutions of the peptides were produced, starting with the same medium. DMSO diluted in the same medium served as the control. Fifty microliters of diluted peptides and the control medium were added to the cells and cultured for 24 h. After cultivation, 5 µL of the enhanced CCK-8 reagent (Beyotime, C0043, Shanghai, China) were added directly to each well of the cell culture and cultured for an additional hour. Absorbance at 450 nm was detected using a TECAN Infinite 200 PRO instrument. The cell viability was normalized to the control, and the concentration at which a peptide inhibited 50% of the cell viability (CC50) was calculated using GraphPad Prism 9.5.1 (GraphPad software, San Diego, CA, USA).
# Poliovirus 3/nOPV3 = conditions: 24 h
# EV-D68 = assay: Immunostaining of viral VP1 after post-infection peptide treatment; format: cell-based; conditions: RD cells infected with 10 TCID50/50 µL EV-D68 for 1 h, washed, peptide at 125 µg/mL for 24 h, VP1 immune-stained area (ImageJ)
# Procedure: RD cells at a density of 4 × 10^4/100 µL/well were seeded in 96-well plates 24 h prior to infection. Fifty microliters of the diluted peptide P25 were added under the following conditions: (1) pre-treatment: cells were pretreated with the peptides for 6 h, 4 h, and 2 h at 35 °C, followed by washing twice with DMEM before virus infection; (2) co-treatment: the peptide was added to the cells together with virus without washing; (3) post-treatment: […] to the medium. Co-treatment with a homemade neutralizing antibody of EV-D68 was employed as the reference control. An amount of 100 TCID50/50 µL was used for the CPE reading, while 10 TCID50/50 µL was used for immunostaining. After 22–24 h of incubation the cells were fixed using 4% formaldehyde and stained with crystal violet or an antibody. The staining of crystal violet was measured at 550 nm using a TECAN Infinite 200 PRO instrument. To detect EV-D68, the polyclonal anti-VP1 (Genetek, GTX132313, South San Francisco, CA, USA) was employed for immunostaining, while the rabbit polyclonal anti-VP1 for the staining of Echo11 was prepared in our laboratory. […] The number of plaques was counted using the CTL ELISPOT reader. […]
# EV-D68/BCH895A = conditions: RD cells, 24 h, crystal violet
# Echo 30/WZ16 = conditions: RD cells, 24 h, crystal violet
# HCV = conditions: cited from earlier work
# EV-A71 = conditions: Table S2, anti-viral target EV-A71; ref [21]; cited from earlier work
# Text: page 2: Biomolecules 2024, 14, 1331. https://doi.org/10.3390/biom14101331 2 of 10 Table S2. Self-derived antiviral peptides. Source Virus Protein Peptide Sequence Mechanism Anti-viral EC50 Reference target […] Interfering PA- Influenza A PB1 PB11-25 TTFPYT binding domain of Influenza A / [48] PB1 PB1731– […] Interfering PB1- Influenza A PB1 757 ELGRQK binding domain of Influenza A / [22] PB2 EV-A71 VP1 SP40 […] Prevented EV-A71 EV-A71 6-9.3 [21] attachment μM […] Inhibiting S 0.32- HCoV-19 S P3 […] mediated cell–cell HC ...
# [3] = co-treatment, 100 TCID50/50 µL, mean ± SD, at least two independent experiments, >125 = protection less than 50% at 125 µg/mL, NO = no inhibition observed
# [4] = peptide at 125 µg/mL (about 56 µM) co-incubated with 100 TCID50/50 µL virus
compound,measurement,setting,value
CC[C@H](C)[C@H](NC(=O)[C@H](Cc1c[nH]cn1)NC(=O)[C@H](CCCCN)NC(=O)[C@@H]1CCCN1C(=O)[C@H](CCCCN)NC(=O)[C@H](CCSC)NC(=O)[C@H](Cc1ccc(O)cc1)NC(=O)[C@@H](NC(=O)[C@H](CCCNC(=N)N)NC(=O)[C@@H](NC(=O)[C@@H](NC(=O)[C@@H](NC(=O)[C@@H](N)[C@@H](C)O)C(C)C)[C@@H](C)O)C(C)C)C(C)C)C(=O)N[C@@H](CCCCN)C(=O)O [Peptide P25.2],IC50 (µg/mL) EV-A71 /FY0805,EV-A71/FY0805 [1],>125 µg/mL
CC[C@H](C)[C@H](NC(=O)[C@H](Cc1c[nH]cn1)NC(=O)[C@H](CCCCN)NC(=O)[C@@H]1CCCN1C(=O)[C@H](CCCCN)NC(=O)[C@H](CCSC)NC(=O)[C@H](Cc1ccc(O)cc1)NC(=O)[C@@H](NC(=O)[C@H](CCCNC(=N)N)NC(=O)[C@@H](NC(=O)[C@@H](NC(=O)[C@@H](NC(=O)[C@@H](N)[C@@H](C)O)C(C)C)[C@@H](C)O)C(C)C)C(C)C)C(=O)N[C@@H](CCCCN)C(=O)N[C@@H](C)C(=O)N[C@@H](Cc1c[nH]c2ccccc12)C(=O)N[C@@H](C)C(=O)O [Peptide P25.5],Interference of HS with the antiviral activity of the peptide,EV-A71/FY0805 [2],No significant interference
same,IC50 (µg/mL) EV-A71 /FY0805,EV-A71/FY0805 [1],>125 µg/mL
CC[C@H](C)[C@H](NC(=O)[C@H](Cc1c[nH]cn1)NC(=O)[C@H](CCCCN)NC(=O)[C@@H]1CCCN1C(=O)[C@H](CCCCN)NC(=O)[C@H](CCSC)NC(=O)[C@H](Cc1ccc(O)cc1)NC(=O)[C@@H](NC(=O)[C@H](CCCNC(=N)N)NC(=O)[C@@H](NC(=O)[C@@H](NC(=O)[C@@H](NC(=O)[C@@H](NC(=O)[C@@H](N)Cc1ccccc1)[C@@H](C)O)C(C)C)[C@@H](C)O)C(C)C)C(C)C)C(=O)N[C@@H](CCCCN)C(=O)N[C@@H](C)C(=O)N[C@@H](Cc1c[nH]c2ccccc12)C(=O)N[C@@H](C)C(=O)O [Peptide P25.8],CC50,RD cells,213.07 ± 29.72 µg/mL
same,Interference of HS with the antiviral activity of the peptide,EV-A71/FY0805 [2],interfered with by HS
same,IC50 (µg/mL) Poliovirus 3 /nOPV3,Poliovirus 3/nOPV3,61.65 ± 4.59 µg/mL
same,IC50 (µg/mL) EV-A71 /FY0805,EV-A71/FY0805 [1],24.49 ± 2.96 µg/mL
CC[C@H](C)[C@H](NC(=O)[C@H](Cc1c[nH]cn1)NC(=O)[C@H](CCCCN)NC(=O)[C@@H]1CCCN1C(=O)[C@H](CCCCN)NC(=O)[C@H](CCSC)NC(=O)[C@H](Cc1ccc(O)cc1)NC(=O)[C@@H](NC(=O)[C@H](CCCNC(=N)N)NC(=O)[C@@H](NC(=O)[C@@H](NC(=O)[C@@H](NC(=O)[C@@H](NC(=O)[C@H](Cc1ccccc1)NC(=O)CNC(=O)[C@@H](NC(=O)[C@@H]1CCCN1C(=O)[C@H](CCC(N)=O)NC(=O)[C@@H](N)Cc1c[nH]cn1)C(C)C)[C@@H](C)O)C(C)C)[C@@H](C)O)C(C)C)C(C)C)C(=O)N[C@@H](CCCCN)C(=O)O [Peptide P25.9],Interference of HS with the antiviral activity of the peptide,EV-A71/FY0805 [2],interfered with by HS
same,IC50 (µg/mL) Poliovirus 3 /nOPV3,Poliovirus 3/nOPV3,108.10 ± 39.15 µg/mL
same,IC50 (µg/mL) EV-A71 /FY0805,EV-A71/FY0805 [1],13.02 ± 0.81 µg/mL
same,Inhibition of the synthesis of the viral protein,EV-D68,significantly inhibited the synthesis of the viral protein
CC[C@H](C)[C@H](NC(=O)[C@H](Cc1c[nH]cn1)NC(=O)[C@H](C)NC(=O)[C@@H]1CCCN1C(=O)[C@H](CCCCN)NC(=O)[C@H](CCSC)NC(=O)[C@H](Cc1ccc(O)cc1)NC(=O)[C@@H](NC(=O)[C@H](CCCNC(=N)N)NC(=O)[C@@H](NC(=O)[C@@H](NC(=O)[C@@H](NC(=O)[C@@H](NC(=O)[C@H](Cc1ccccc1)NC(=O)CN)[C@@H](C)O)C(C)C)[C@@H](C)O)C(C)C)C(C)C)C(=O)N[C@@H](C)C(=O)N[C@@H](C)C(=O)N[C@@H](Cc1c[nH]c2ccccc12)C(=O)N[C@@H](C)C(=O)O [Peptide P25.12],IC50 (µg/mL) EV-A71 /FY0805,EV-A71/FY0805 [1],41.17 ± 7.04 µg/mL
CC[C@H](C)[C@H](NC(=O)[C@H](CCCNC(=N)N)NC(=O)[C@@H](NC(=O)[C@@H](NC(=O)[C@@H](NC(=O)[C@H](CCCCN)NC(=O)[C@H](Cc1ccccc1)NC(=O)CN)C(C)C)C(C)C)[C@@H](C)O)C(=O)N[C@@H](Cc1ccc(O)cc1)C(=O)N[C@@H](Cc1c[nH]cn1)C(=O)N[C@@H](CCCCN)C(=O)N[C@@H](C)C(=O)N[C@@H](CCCCN)C(=O)N[C@@H](Cc1c[nH]cn1)C(=O)N[C@H](C(=O)N[C@@H](CCCCN)C(=O)N[C@@H](C)C(=O)N[C@@H](Cc1c[nH]c2ccccc12)C(=O)N[C@@H](CS)C(=O)O)[C@@H](C)O [Peptide P25.A81GF],IC50 (µg/mL) EV-D68 /BCH895A,EV-D68/BCH895A; [3],>125 µg/mL
same,IC50 (µg/mL) Poliovirus 3 /nOPV3,Poliovirus 3/nOPV3,>125 µg/mL
same,IC50 (µg/mL) EV-A71 /FY0805,EV-A71/FY0805 [1],29.28 ± 3.97 µg/mL
same,IC50 (µg/mL) Echo 30 /WZ16,Echo 30/WZ16; [3],>125 µg/mL
CC[C@H](C)[C@H](NC(=O)[C@H](CCCNC(=N)N)NC(=O)[C@@H](NC(=O)[C@@H](NC(=O)[C@@H](NC(=O)[C@H](CCCCN)NC(=O)[C@@H](NC(=O)[C@@H](N)CCCCN)C(C)C)C(C)C)C(C)C)[C@@H](C)O)C(=O)N[C@@H](Cc1ccc(O)cc1)C(=O)N[C@@H](Cc1c[nH]cn1)C(=O)N[C@@H](CCCCN)C(=O)N[C@@H](C)C(=O)N[C@@H](CCCCN)C(=O)N[C@@H](Cc1c[nH]cn1)C(=O)N[C@H](C(=O)N[C@@H](CCCCN)C(=O)N[C@@H](C)C(=O)N[C@@H](Cc1c[nH]c2ccccc12)C(=O)N[C@@H](CS)C(=O)O)[C@@H](C)O [Peptide P25.A81],Antiviral activity of P25 homologous peptides to EV-A71/FY0805,EV-A71/FY0805 [1],displayed antiviral activity
same,IC50 (µg/mL) EV-A71 /FY0805,EV-A71/FY0805 [1],23.60 ± 0.49 µg/mL
ADKNFFKWTINTRSFVQLRR [Peptide P11],"Inhibitory effect on CPE, peptide screen",EV-D68/BCH895A; [4],exhibited inhibitory effects on CPE
same,"Inhibitory effect on CPE, peptide screen",EV-A71/FY0805 [1],exhibited inhibitory effects on CPE
same,"Inhibitory effect on CPE, peptide screen",Echo 30/WZ16; [4],exhibited inhibitory effects on CPE
AWAKIHKPKMYVRVTVTFG [Peptide P25.R],CC50,RD cells,98.27 ± 7.13 µg/mL
GFTVTVRVYMK [Peptide P25.1],IC50 (µg/mL) EV-A71 /FY0805,EV-A71/FY0805 [1],34.06 ± 9.39 µg/mL
HGLLYFAIFFVAAWHIRGR [Peptide H2-3],EC50,HCV,540 nM
"QMRRKVELFTYMRFD [SP40, peptide derived from VP1 of EV-A71, prevented EV-A71 attachment]",EC50,EV-A71,6000 to 9300 nM
SFAIKWEYVLLLFLL [Peptide 75],EC50,HCV,300 nM
"SWLRDIWDWICEVLSDFK [Peptide C5A, peptide from NS5A of HCV, destabilizing viral membranes]",EC50,HCV,340 nM
TVTVRVYHK [Peptide P25.4],IC50 (µg/mL) EV-A71 /FY0805,EV-A71/FY0805 [1],>125 µg/mL
TVTVRVYMK [Peptide P25.3],IC50 (µg/mL) EV-A71 /FY0805,EV-A71/FY0805 [1],>125 µg/mL
